This data set has as its system human dermal fibroblasts. In words: MTT assay, cell viability. Format: cell-based. The note with it: 1, 5, 10 μM; up to 72 hours. How it is done:
MTT assays were performed to assess the metabolic activity of human dermal fibroblasts. Human dermal fibroblasts were seeded in 96-well plates (Costar, USA) at a density of 1×10^4 cells/mL. After 24 hours of incubation, the medium was replaced by the Lig-PEG1, Lig-PEG2, Lig-PEG4, α-CD and P(PEGMA) (Mn=18 000 g/mol) aqueous solutions at concentrations of 10 μM, 5 μM and 1 μM, respectively. The cells were then incubated for 24 hours, 48 hours and 72 hours, respectively. After the designated time intervals, the wells were washed twice with 1×PBS buffer, and 100 μL of freshly prepared MTT (0.5 mg/mL) solution in culture medium was added to each well. The MTT medium solution was carefully removed after 3 hours incubation in the incubator. DMSO (100 μL) was then added into each well, and the plate was gently shaken for 10 minutes at room temperature to dissolve all precipitates formed. The absorbance of MTT at 570 nm was monitored by the microplate reader (Genios Tecan, Switzerland). Cell viability was expressed by the ratio of absorbance of the cells incubated with polymer solution to that of the cells incubated with culture medium only.

Cytotoxicity data for one compound are collected here from patent US10683382B2, “Copolymer comprising a lignin or lignin derivative and a poly(alkylene oxide) alkyl ether (meth)acrylate, and a hydrogel comprising the copolymer” (AGENCY FOR SCIENCE, TECHNOLOGY AND RESEARCH, priority 2015, dated 2020).

The structures appear in SMILES notation.

In the case of `OC[C@H]1O[C@@H]2O[C@H]3[C@H](O)[C@@H](O)[C@@H](O[C@H]4[C@H](O)[C@@H](O)[C@@H](O[C@H]5[C@H](O)[C@@H](O)[C@@H](O[C@H]6[C@H](O)[C@@H](O)[C@@H](O[C@H]7[C@H](O)[C@@H](O)[C@@H](O[C@H]1[C@H](O)[C@H]2O)O[C@@H]7CO)O[C@@H]6CO)O[C@@H]5CO)O[C@@H]4CO)O[C@@H]3CO` [α-CD, α-cyclodextrin], the cytotoxicity result is recorded as “no cytotoxicity”.
